Measured values as given in PubChem BioAssay (NCI).
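The compound was tested at five concentrations on cells cultured in 96-well plates, with a 48-hour exposure period. Definition used: TGI = concentration required for complete inhibition of growth.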

Tests used:
Experiment in all cases: DTP human tumour cell line panel, 48 h
OVCAR-5 ovarian = test system: OVCAR-5 ovarian
CCRF-CEM leukemia = test system: CCRF-CEM leukemia
UACC-257 melanoma = test system: UACC-257 melanoma
NCI-H23 lung = test system: NCI-H23 lung
HCT-116 colon = test system: HCT-116 colon
LOX IMVI melanoma = test system: LOX IMVI melanoma
HL-60(TB) leukemia = test system: HL-60(TB) leukemia
OVCAR-3 ovarian = test system: OVCAR-3 ovarian
U251 CNS = test system: U251 CNS
COLO 205 colon = test system: COLO 205 colon
DU-145 prostate = test system: DU-145 prostate
K-562 leukemia = test system: K-562 leukemia
MDA-MB-231 breast = test system: MDA-MB-231 breast
HCT-15 colon = test system: HCT-15 colon

| SMILES | TGI (OVCAR-5 ovarian) | TGI (CCRF-CEM leukemia) | TGI (UACC-257 melanoma) | TGI (NCI-H23 lung) | TGI (HCT-116 colon) | TGI (LOX IMVI melanoma) | TGI (HL-60(TB) leukemia) | TGI (OVCAR-3 ovarian) | TGI (U251 CNS) | TGI (COLO 205 colon) | TGI (DU-145 prostate) | TGI (K-562 leukemia) | TGI (MDA-MB-231 breast) | TGI (HCT-15 colon) |
| --- | --- | --- | --- | --- | --- | --- | --- | --- | --- | --- | --- | --- | --- | --- |
| CC(C)(C)OC(=O)NNCC(O)COc1ccccc1 (stereo unspecified) | > 100 µM | > 100 µM | > 100 µM | > 100 µM | > 100 µM | > 100 µM | > 100 µM | > 100 µM | > 100 µM | > 100 µM | > 100 µM | > 100 µM | > 100 µM | > 100 µM |
| COc1ccc(C2NC(N)=C(C#N)C3=C2C(C)CCC3)cc1OC (stereo unspecified) | > 100 µM | > 100 µM | > 100 µM | > 100 µM | > 100 µM | > 100 µM | > 100 µM | > 100 µM | > 100 µM | > 100 µM | > 100 µM | > 100 µM | > 100 µM | > 100 µM |
| CC(C)=CCC[C@@H](C)C1=C(O)C(Nc2ccccc2)=C(C)C(=O)C1=O | > 100 µM | 5.78 µM | > 100 µM | 98.7 µM | > 75.6 µM | > 100 µM | 24.4 µM | > 52.2 µM | > 100 µM | > 61.8 µM | > 74.2 µM | > 80.9 µM | > 100 µM | > 78.7 µM |
| Cc1nccn1S(=O)(=O)c1ccc(Cl)cc1 | > 100 µM | > 100 µM | > 100 µM | > 100 µM | > 100 µM | > 100 µM | 60.5 µM | > 100 µM | > 100 µM | 40.2 µM | > 100 µM | > 100 µM | 78.9 µM | > 100 µM |
| COc1ccc(/C=C(/c2ccc(OC)cc2)c2c(Cl)cc(Cl)c(/C(=C\c3ccc(OC)cc3)c3ccc(OC)cc3)c2N=Nc2ccccc2)cc1 | > 100 µM | > 100 µM | > 100 µM | > 100 µM | > 100 µM | > 100 µM | > 100 µM | > 100 µM | > 100 µM | > 100 µM | > 100 µM | > 100 µM | > 100 µM | > 100 µM |
| c1ccc(OCc2nnc(CCCCCCCCc3nnc(COc4ccccc4)o3)o2)cc1 | > 100 µM | > 100 µM | > 100 µM | > 100 µM | > 100 µM | > 100 µM | > 100 µM | > 100 µM | > 100 µM | > 100 µM | > 100 µM | > 100 µM | > 100 µM | > 100 µM |
| CCOC(=O)C1=C(C)N(Cc2ccccc2)C2(O)C(OC)CC(=O)C3C(=O)N(c4ccccc4)C(=O)C132 (stereo unspecified) | > 100 µM | > 100 µM | 37.7 µM | > 100 µM | > 100 µM | > 100 µM | > 100 µM | > 100 µM | > 100 µM | > 100 µM | 15.1 µM | > 100 µM | 77.2 µM | > 100 µM |
| ClC1=C(Cl)C2OC3C=CCC3OC2C(Cl)=C1Cl (stereo unspecified) | > 100 µM | > 100 µM | > 100 µM | > 100 µM | > 100 µM | > 100 µM | > 100 µM | > 100 µM | > 100 µM | – | > 100 µM | > 100 µM | > 100 µM | > 100 µM |
| OCC(S)CS.[Bi] (stereo unspecified) | 42.5 µM | 5.22 µM | 27.9 µM | 52.2 µM | 44.4 µM | > 100 µM | 46.4 µM | 24.7 µM | 40.2 µM | 30 µM | 68.5 µM | > 100 µM | 43.2 µM | 50.7 µM |
| CCC(C)N1CN(c2ccccc2)C2(CCN(CCCC3(c4ccc(F)cc4)OCCO3)CC2)C1=O (stereo unspecified) | 22.4 µM | 15.3 µM | 4.24 µM | 18.1 µM | 24.9 µM | 21.6 µM | 23 µM | 29.8 µM | 10.9 µM | 16.8 µM | > 57.3 µM | 34.3 µM | 26.2 µM | 10.8 µM |
| Cc1ccsc1/C=N/Nc1cc(C)c2ccccc2n1 | 90.3 µM | 57.8 µM | 21 µM | 31.3 µM | 28.7 µM | 25.9 µM | 34.4 µM | 26.6 µM | 31.4 µM | 20.9 µM | 32 µM | 78.4 µM | 12.5 µM | 28.2 µM |
| O=C(Cn1c(=O)oc2ccc(C(=O)c3cccc(Cl)c3)cc21)c1ccccc1 | > 100 µM | > 100 µM | > 100 µM | > 100 µM | – | > 100 µM | > 100 µM | > 100 µM | > 100 µM | > 100 µM | > 100 µM | > 100 µM | > 100 µM | > 100 µM |
| Cc1cc(S(=O)(=O)Nc2n[nH]c(Nc3ccccc3)n2)c(SSc2cc(Cl)c(C)cc2S(=O)(=O)Nc2n[nH]c(Nc3ccccc3)n2)cc1Cl | > 100 µM | > 100 µM | > 100 µM | > 100 µM | > 100 µM | > 100 µM | 61.1 µM | > 100 µM | > 100 µM | > 100 µM | > 100 µM | > 100 µM | > 100 µM | > 100 µM |
| Cc1cc(OCc2nnc3n2N=C(c2cc(F)c(Cl)cc2Cl)/C(=C/c2ccc(-c4ccc(Cl)cc4)o2)S3)ccc1Cl | > 50 µM | > 50 µM | > 50 µM | > 50 µM | > 50 µM | > 50 µM | > 50 µM | > 50 µM | > 50 µM | > 50 µM | > 50 µM | > 50 µM | > 50 µM | > 50 µM |
| COc1cccc(N(CN2C(=O)CCC2OC)C(C)=O)c1 (stereo unspecified) | > 100 µM | > 100 µM | > 100 µM | > 100 µM | > 100 µM | > 100 µM | 49.2 µM | > 100 µM | > 100 µM | > 100 µM | > 100 µM | > 100 µM | > 100 µM | > 100 µM |
| C=C1CC(O)C2C(=C)C(=O)OC2C2C(C)C(=O)CC12 (stereo unspecified) | 30.1 µM | 41.4 µM | 26.5 µM | 31.8 µM | > 100 µM | 80.2 µM | 9.43 µM | 24 µM | 59.1 µM | 43.5 µM | 46.8 µM | 28.7 µM | 35.4 µM | 17.1 µM |
| O=C1Nc2ccccc2SC1=C(C(=O)c1ccccc1)C(=O)c1ccccc1 | > 91.1 µM | 77.4 µM | > 88 µM | > 90.8 µM | > 100 µM | > 100 µM | 0.82 µM | 41.5 µM | > 100 µM | > 88 µM | > 100 µM | > 100 µM | > 92.8 µM | > 100 µM |
| CC1=NN2CCC(=O)N=C2S1 | > 100 µM | > 100 µM | > 100 µM | > 100 µM | > 100 µM | > 100 µM | > 100 µM | > 100 µM | > 100 µM | > 100 µM | > 100 µM | > 100 µM | > 100 µM | > 100 µM |
| COc1ccc(/N=N/C(=NNC(=O)c2ccc(C)cc2)c2ccc(N(C)C)cc2)cc1 | > 100 µM | > 100 µM | > 91.4 µM | > 100 µM | > 100 µM | > 100 µM | > 67.7 µM | > 79.4 µM | > 100 µM | > 85.8 µM | > 72.7 µM | > 100 µM | > 100 µM | > 100 µM |
| Cn1c(-c2c(C3=CC(=O)N(c4ccccc4)C3=O)c3ccccc3n2C)cc2ccccc21 | > 100 µM | > 100 µM | > 100 µM | > 100 µM | > 100 µM | > 100 µM | > 100 µM | > 100 µM | > 100 µM | > 100 µM | > 100 µM | > 100 µM | > 100 µM | > 100 µM |
| NNS(=O)(=O)c1ccc(/C=C2\NC(=O)NC2=O)cc1 | > 100 µM | > 100 µM | > 100 µM | > 100 µM | > 100 µM | > 100 µM | > 100 µM | > 100 µM | > 100 µM | > 100 µM | > 100 µM | > 100 µM | > 100 µM | > 100 µM |
| CC1CN=C(c2ccc(CN3CCC(CCCC4CCN(Cc5ccc(C6=NCC(C)N6)cc5)CC4)CC3)cc2)N1 (stereo unspecified) | 63 µM | 67.4 µM | 45.9 µM | > 100 µM | > 100 µM | > 100 µM | > 100 µM | > 100 µM | > 100 µM | 33 µM | > 100 µM | > 100 µM | 59.7 µM | > 100 µM |
| O=C(O)C1CSC2(CCCN(Cc3ccccc3)C2)N1 (stereo unspecified) | > 100 µM | > 79.6 µM | > 100 µM | > 100 µM | > 100 µM | > 100 µM | > 100 µM | > 100 µM | > 100 µM | > 100 µM | > 100 µM | > 81.1 µM | > 100 µM | > 100 µM |
| O=C(CN1CCN(c2ccccn2)CC1)N1CCCn2c1nc1ccccc1c2=O | > 100 µM | > 100 µM | > 100 µM | > 100 µM | > 100 µM | > 100 µM | > 100 µM | > 100 µM | > 100 µM | > 100 µM | > 100 µM | > 100 µM | > 100 µM | > 100 µM |
| COC(=O)/C=C\C(C#N)(C#N)N=Cc1ccc(Br)cc1 | 35.8 µM | 5.91 µM | 28 µM | 49.5 µM | > 60.5 µM | 5.26 µM | 1.27 µM | 24.9 µM | 33.3 µM | 9.55 µM | 16.7 µM | > 100 µM | 8.48 µM | 11.8 µM |
| Cc1ccc2c(c1)Nc1ccccc1P2(=O)O | > 100 µM | > 100 µM | > 100 µM | > 100 µM | > 100 µM | > 100 µM | > 100 µM | > 100 µM | > 100 µM | > 100 µM | > 100 µM | > 100 µM | > 100 µM | > 100 µM |
| NC(=S)NS(=O)(=O)c1ccc(Cl)cc1 | > 100 µM | > 100 µM | > 100 µM | > 100 µM | > 100 µM | > 100 µM | > 100 µM | > 100 µM | > 100 µM | > 100 µM | > 100 µM | > 100 µM | > 100 µM | > 100 µM |
